# Measured values as given in patent publication US11173103B1, “Retinoids and epidermal stimulants” (Owen Biosciences, Inc., priority 2017, dated 2021).
# Key:
# HBEGF = test: DNA microarray assay, expression of proliferative/growth-factor related genes; type: cell-based; conditions: DMSO delivered retinol at 5 ppm; retinyl linoleate and lysophospholipid concentrate at a ratio of 1:0.4
# TGF alpha = test: as above; type: cell-based; conditions: DMSO delivered retinol at 5 ppm; retinyl linoleate and lysophospholipid concentrate at a ratio of 1:0.4
# mature murine skin = test: Histology of punch biopsies of treated murine skin (epidermal thickening, proliferation, keratinocyte differentiation); type: in vivo, mice; conditions: for basal cell turn over / formation of normally-functioning supra basal granular keratinocytes: applied to the skin of mice, all trans retinoic acid 0.1%, all trans retinol 1.0%
# Excerpt: Photomicrographs of murine tissue samples treated according to methods of the present invention are presented the figures. Differing amounts of inter-laminar keratinocyte differentiation were observed. In some cases, there is intra-laminar disruption, in which stratum corneum (SC) and granular layer (GL) are separated, indicating little granular keratinocyte formation and/or suppression of one or both of granular keratinocyte extracellular desmosomal proteins and/or reduced production of laminar granules (proteases, lipids). This was not considered an artifact of the micro-tome blade.
# More particularly, histological observations, including degree of “keratinocyte differentiation” are described by reference to photomicrographs of retired breeder mice obtained from Charles River Laboratories, Inc. (Wilmington, Mass.). An area of approximately one square inch was shaved. Test compositions (e.g., control=carrier vehicle with ingredient known to be irritating; test=same carrier and known irritant from control+phospholipid) were administered in accordance with methods of the inventions. Punch biopsies of full thickness skin and subcutaneous fat were taken as follows: skin was swabbed with an antiseptic and injected with a local anaesthetic; an incision was made, and a tissue specimen was removed and preserved in 10% neutral buffered formalin at a volume of approximately ten times that of the tissue). Excision sites were sutured. The preserved tissues samples were sent to Louisiana State University, School of Veterinary Medicine for processing and analysis. More particularly, tissue was processed in graded alcohol [70% (v/v) ethanol, 90% (v/v) ethanol, absolute ethanol] followed by graded xylene [[…], absolute xylene]. Next the processed tissue was placed in blocks/molds filled with paraffin wax liquid, in an orientation with the epidermis on top, with ice on top to hold the tissue in place. Wax blocks were cooled in ice and sectioned at a thickness of 5-15 μm using a microtome with disposable blade (Leica Microtome Model RM2255). Microtomed sections were placed on adhesive slides, incubated at 37° C. for 24 hours (i.e., on slide racks), and then stored in slide containers at room temperature until H&E staining is performed to visualize histological microstructures. All histological samples were micro photographed at 400× under normal light with standard digital equipment. These photos were transferred to PHOTOSHOP® computer imaging software from Adobe Systems Pvt. Ltd., in which measurements of epidermal thickness, SC thickness, granulation, layering were determined.
# TGF beta 1 = test: DNA microarray assay, expression of proliferative/growth-factor related genes; type: cell-based; conditions: DMSO delivered retinol at 5 ppm; retinyl linoleate and lysophospholipid concentrate at a ratio of 1:0.4
# CSF2 = test: as above; type: cell-based; conditions: DMSO delivered retinol at 5 ppm; retinyl linoleate and lysophospholipid concentrate at a ratio of 1:0.4
# FGF = test: as above; type: cell-based; conditions: DMSO delivered retinol at 5 ppm; retinyl linoleate and lysophospholipid concentrate at a ratio of 1:0.4
# [1] = bioemulsion applied once daily over 4 consecutive days (retinyl phosphate 1%)
# [2] = FIG. 7, bioemulsion with 1% retinyl linoleate
# [3] = 1% in a bioemulsion applied once daily over 2 consecutive days
# [4] = 1% in a bioemulsion applied once daily over three consecutive days
compound,measurement,setting,value
"CC1=C(/C=C/C(C)=C/C=C/C(C)=C/CO)C(C)(C)CCC1 [DMSO Delivered Retinol, Retinol]",HBEGF level of expression (change),HBEGF,−50%
same,TGF alpha level of expression (change),TGF alpha,+200%
same,basal cell turn over,mature murine skin,stimulates
same,formation of normally-functioning supra basal granular keratinocytes,mature murine skin,inhibits or suppresses
same,TGF beta 1 level of expression (change),TGF beta 1,−50%
same,CSF2 level of expression (change),CSF2,−25%
same,FGF level of expression (change),FGF,−50%
"CC1=C(/C=C/C(C)=C/C=C/C(C)=C/C(=O)O)C(C)(C)CCC1 [all trans retinoic acid, Retinoic acid]",basal cell turn over,mature murine skin,stimulates
same,formation of normally-functioning supra basal granular keratinocytes,mature murine skin,inhibits or suppresses
CC(C=CC1=C(C)CCCC1(C)C)=CC=CC(C)=CCOC(=O)CCC(=O)OCC=C(C)C=CC=C(C)C=CC1=C(C)CCCC1(C)C [diretinyl succinate],keratinocyte differentiation,mature murine skin; [1],de minimis
same,proliferation,mature murine skin; [1],De minimis
"CCCCC/C=C\C/C=C\CCCCCCCC(=O)OC/C=C(C)/C=C/C=C(C)/C=C/C1=C(C)CCCC1(C)C [retinyl linoleate, Retinyl linoleate]",SC density,mature murine skin; [2],Increased
same,differentiation,mature murine skin; [2],without significant differentiation
same,proliferation,mature murine skin; [2],Increased
CC1=C(/C=C/C(C)=C\C=C\C(C)=C\COP(=O)(O)O)C(C)(C)CCC1 [retinyl phosphate],keratinocyte differentiation,mature murine skin; [1],de minimis
same,proliferation,mature murine skin; [1],De minimis
Glyceryl diretinoate,differentiation,mature murine skin; [3],good
same,proliferation,mature murine skin; [3],good
Monoglyceryl retinoate [glyceryl mono retinoate],differentiation,mature murine skin; [3],excellent
same,proliferation,mature murine skin; [3],excellent
acetyl-n-phenylalanine retinoate,differentiation,mature murine skin; [4],good
same,proliferation,mature murine skin; [4],good
